Assay results reported in ChEMBL document CHEMBL6109061, “Discovery of an Ultralong-acting Nondepolarizing Neuromuscular Blocker That Displays Short Onset Time and On-Demand Rapid Reversal by a Biocompatible Antagonist” (J Med Chem, 2025).

Experiments:
[1] = Toxicity in Sprague-Dawley rat assessed as kidney damage at 3 mg/kg, iv measured after 5 hrs by H and E staining based analysis; type: organism-based; conditions: in vivo
Rattus norvegicus [2] = assay: Neuromuscular block activity in propofol-induced anesthetized Sprague-Dawley rat model assessed as time duration of 0 to 25 percent recovery indices at 0.2 mg/kg, iv; type: functional
[3] = Toxicity in Sprague-Dawley rat assessed as lung damage at 3 mg/kg, iv measured after 5 hrs by H and E staining based analysis; type: organism-based; conditions: in vivo
[4] = Toxicity in Sprague-Dawley rat assessed as heart damage at 3 mg/kg, iv measured after 5 hrs by H and E staining based analysis; type: organism-based; conditions: in vivo
H9c2 = assay: Cytotoxicity against rat H9c2 cells assessed as cell viability at 150 microg/ml measured for 24 hrs by SRB assay; type: toxicity, cell-based; conditions: h9c2, 24 h, dose 150 µg/ml
Rattus norvegicus [5] = assay: Neuromuscular block activity in propofol-induced anesthetized Sprague-Dawley rat model assessed as onset time required for twitch reduction at 0.04 mg/kg, iv; type: functional
Rattus norvegicus [6] = assay: Neuromuscular block activity in propofol-induced anesthetized Sprague-Dawley rat model assessed as recovery time at 0.032 mg/kg, iv; type: functional
[7] = Toxicity in Sprague-Dawley rat assessed as liver damage at 3 mg/kg, iv measured after 5 hrs by H and E staining based analysis; type: organism-based; conditions: in vivo
[8] = Solubility of compound in water; type: physicochemical
Rattus norvegicus [9] = assay: Neuromuscular block activity in propofol-induced anesthetized Sprague-Dawley rat model assessed as time duration of 0 to 25 percent recovery indices at 1.5 mg/kg, iv; type: functional
Rattus norvegicus [10] = assay: Neuromuscular block activity in propofol-induced anesthetized Sprague-Dawley rat model assessed as inhibition of twitch by measuring twitch intensity of quadriceps muscle at 1.5 mg/kg, iv administered as bolus dose by TOF watch monitor analysis relative to control; type: functional
Rattus norvegicus [11] = assay: Neuromuscular block activity in propofol-induced anesthetized Sprague-Dawley rat model assessed as time duration of 0 to 25 percent recovery indices at 0.04 mg/kg, iv; type: functional
Rattus norvegicus [12] = assay: Neuromuscular block activity in propofol-induced anesthetized Sprague-Dawley rat model assessed as inhibition of twitch by measuring twitch intensity of quadriceps muscle at 10 mg/kg, iv administered as bolus dose by TOF watch monitor analysis relative to control; type: functional
Rattus norvegicus [13] = assay: Neuromuscular block activity in propofol-induced anesthetized Sprague-Dawley rat model assessed as onset time required for twitch reduction at 0.032 mg/kg, iv; type: functional
[14] = Hemolytic activity in human RBC assessed as hemolysis rate at 2048 microg/ml relative to control; type: toxicity, cell-based, Erythrocyte; conditions: red blood cells, at 2048 µg/mL, read-out: Activity
Rattus norvegicus [15] = assay: Neuromuscular block activity in propofol-induced anesthetized iv dosed Sprague-Dawley rat model assessed as effective dose; type: functional
Rattus norvegicus [16] = assay: Neuromuscular block activity in propofol-induced anesthetized Sprague-Dawley rat model assessed as onset time required for twitch reduction at 10 mg/kg, iv; type: functional
[17] = Hemolytic activity in rat RBC assessed as hemolysis rate at 2048 microg/ml relative to control; type: toxicity, cell-based, Erythrocyte; conditions: red blood cells, at 2048 µg/mL, read-out: Activity
Rattus norvegicus [18] = assay: Neuromuscular block activity in propofol-induced anesthetized Sprague-Dawley rat model assessed as inhibition of twitch by measuring twitch intensity of quadriceps muscle at 3 mg/kg, iv administered as bolus dose by TOF watch monitor analysis relative to control; type: functional
[19] = Toxicity in iv dosed ICR mouse assessed as maximum tolerated dose; type: organism-based; conditions: in vivo
Rattus norvegicus [20] = assay: Neuromuscular block activity in propofol-induced anesthetized Sprague-Dawley rat model assessed as time duration of 0 to 25 percent recovery indices at 0.032 mg/kg, iv; type: functional
[21] = Mutagenicity in Salmonella typhimurium TA97a by AMES test; type: toxicity; conditions: salmonella enterica subsp. enterica serovar typhimurium
Rattus norvegicus [22] = assay: Neuromuscular block activity in propofol-induced anesthetized Sprague-Dawley rat model assessed as time duration of 0 to 25 percent recovery indices at 3 mg/kg, iv; type: functional
Rattus norvegicus [23] = assay: Neuromuscular block activity in propofol-induced anesthetized Sprague-Dawley rat model assessed as inhibition of twitch by measuring twitch intensity of quadriceps muscle at 0.2 mg/kg, iv administered as bolus dose by TOF watch monitor analysis relative to control; type: functional
[24] = Toxicity in Sprague-Dawley rat assessed as spleen damage at 3 mg/kg, iv measured after 5 hrs by H and E staining based analysis; type: organism-based; conditions: in vivo
Rattus norvegicus [25] = assay: Neuromuscular block activity in propofol-induced anesthetized Sprague-Dawley rat model assessed as inhibition of twitch by measuring twitch intensity of quadriceps muscle at 0.04 mg/kg, iv administered as bolus dose by TOF watch monitor analysis relative to control; type: functional
[26] = target: Voltage-gated inwardly rectifying potassium channel KCNH2 (Homo sapiens, UniProt Q12809); assay: Inhibition of hERG by Qpatch assay; type: toxicity
[27] = Mutagenicity in Salmonella typhimurium TA98 by AMES test; type: toxicity; conditions: salmonella enterica subsp. enterica serovar typhimurium
Rattus norvegicus [28] = assay: Neuromuscular block activity in propofol-induced anesthetized Sprague-Dawley rat model assessed as onset time required for twitch reduction at 1.5 mg/kg, iv; type: functional
Rattus norvegicus [29] = assay: Neuromuscular block activity in propofol-induced anesthetized Sprague-Dawley rat model assessed as onset time required for twitch reduction at 3 mg/kg, iv; type: functional
Rattus norvegicus [30] = assay: Neuromuscular block activity in propofol-induced anesthetized Sprague-Dawley rat model assessed as onset time required for twitch reduction at 0.2 mg/kg, iv; type: functional
Rattus norvegicus [31] = assay: Neuromuscular block activity in propofol-induced anesthetized Sprague-Dawley rat model assessed as inhibition of twitch by measuring twitch intensity of quadriceps muscle at 0.032 mg/kg, iv administered as bolus dose by TOF watch monitor analysis relative to control; type: functional
[32] = Mutagenicity in Salmonella typhimurium TA100 by AMES test; type: toxicity; conditions: salmonella enterica subsp. enterica serovar typhimurium
Rattus norvegicus [33] = assay: Neuromuscular block activity in propofol-induced anesthetized Sprague-Dawley rat model assessed as time duration of 0 to 25 percent recovery indices at 10 mg/kg, iv; type: functional
Rattus norvegicus [34] = assay: Reversal of IMC-14-induced neuromuscular block in Sprague-Dawley rat model assessed as recovery time at 20 mg/kg, iv measured at 19 sec; type: functional; conditions: 19 s
[35] = Toxicity in Sprague-Dawley rat at 0.2 mg/kg, iv measured for 5 hrs; type: organism-based; conditions: in vivo
Rattus norvegicus [36] = assay: Reversal of IMC-14-induced neuromuscular block in Sprague-Dawley rat model assessed as recovery time at 10 mg/kg, iv measured at 30 sec; type: functional; conditions: 0.5 min
Rattus norvegicus [37] = assay: Reversal of IMC-14-induced neuromuscular block in Sprague-Dawley rat model assessed as recovery time at 10 mg/kg, iv measured at 5 hrs; type: functional
Rattus norvegicus [38] = assay: Reversal of IMC-14-induced neuromuscular block in Sprague-Dawley rat model assessed as recovery time at 10 mg/kg, iv measured at 30 mins; type: functional; conditions: 0.5 h

Voltage-gated inwardly rectifying potassium channel KCNH2, sequence (Q12809 whole entry): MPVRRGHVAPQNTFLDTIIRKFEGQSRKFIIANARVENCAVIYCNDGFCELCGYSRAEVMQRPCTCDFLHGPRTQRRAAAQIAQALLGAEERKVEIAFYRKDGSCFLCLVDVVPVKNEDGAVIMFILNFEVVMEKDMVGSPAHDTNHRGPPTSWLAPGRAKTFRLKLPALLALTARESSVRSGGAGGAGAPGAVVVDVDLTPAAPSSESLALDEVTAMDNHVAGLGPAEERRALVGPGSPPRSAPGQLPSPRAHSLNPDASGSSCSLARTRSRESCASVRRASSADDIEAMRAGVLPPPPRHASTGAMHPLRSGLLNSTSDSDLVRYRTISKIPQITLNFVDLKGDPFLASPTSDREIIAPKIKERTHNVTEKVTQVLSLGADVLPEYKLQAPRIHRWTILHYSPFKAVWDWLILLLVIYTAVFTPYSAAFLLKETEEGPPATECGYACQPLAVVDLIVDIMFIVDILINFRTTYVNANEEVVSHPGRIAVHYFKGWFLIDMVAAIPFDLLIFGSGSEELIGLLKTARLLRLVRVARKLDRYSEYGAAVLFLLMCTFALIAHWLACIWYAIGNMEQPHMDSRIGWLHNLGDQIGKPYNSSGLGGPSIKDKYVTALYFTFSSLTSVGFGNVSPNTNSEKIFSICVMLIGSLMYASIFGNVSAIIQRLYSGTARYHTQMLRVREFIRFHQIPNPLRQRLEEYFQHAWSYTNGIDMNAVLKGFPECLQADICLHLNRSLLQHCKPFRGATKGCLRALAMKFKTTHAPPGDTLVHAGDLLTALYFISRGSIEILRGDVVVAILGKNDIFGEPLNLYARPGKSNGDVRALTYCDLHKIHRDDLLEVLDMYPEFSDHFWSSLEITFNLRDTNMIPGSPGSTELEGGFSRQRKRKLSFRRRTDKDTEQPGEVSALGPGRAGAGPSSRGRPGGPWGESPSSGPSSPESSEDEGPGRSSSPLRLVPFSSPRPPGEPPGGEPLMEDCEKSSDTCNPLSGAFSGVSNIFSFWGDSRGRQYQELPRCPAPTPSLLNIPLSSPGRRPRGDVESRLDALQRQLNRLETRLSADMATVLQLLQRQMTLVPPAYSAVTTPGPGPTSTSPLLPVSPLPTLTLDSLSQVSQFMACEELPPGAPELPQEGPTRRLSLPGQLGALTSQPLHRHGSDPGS

Cc1n2cc[n+]1Cc1ccc(cc1)Oc1ccc(cc1)C[n+]1ccn(c1C)CCCn1cc[n+](c1C)Cc1ccc(cc1)Oc1ccc(cc1)C[n+]1ccn(c1C)CCC2.[Cl-].[Cl-].[Cl-].[Cl-]
Activity [1]: Non-toxic
Time (Rattus norvegicus [2]): 217 min
Activity [3]: Non-toxic
Activity [4]: Non-toxic
Activity (H9c2): Non-toxic
Time (Rattus norvegicus [5]): 90 s
Time (Rattus norvegicus [6]): 7.6 min
Activity [7]: Non-toxic
solubility [8]: ≥ 50 mM
Time (Rattus norvegicus [9]): >300 min
inhibition in vivo at 1.5 mg/kg (Rattus norvegicus [10]): 100%
Time (Rattus norvegicus [11]): 102 min
inhibition in vivo at 10 mg/kg (Rattus norvegicus [12]): 100%
Time (Rattus norvegicus [13]): 293 s
hemolysis at 2048 microg/ml [14]: < 5%
ED50 (Rattus norvegicus [15]): 0.016 mg/kg
Time (Rattus norvegicus [16]): 9 s
hemolysis at 2048 microg/ml [17]: < 5%
inhibition in vivo at 3 mg/kg (Rattus norvegicus [18]): 100%
MTD [19]: 550 mg/kg
Time (Rattus norvegicus [20]): 35 min
Activity [21]: Non-toxic
Time (Rattus norvegicus [22]): >300 min
inhibition in vivo at 0.2 mg/kg (Rattus norvegicus [23]): 100%
Activity [24]: Non-toxic
inhibition in vivo at 0.04 mg/kg (Rattus norvegicus [25]): 90%
IC50 [26]: > 40 µM
Activity [27]: Non-toxic
Time (Rattus norvegicus [28]): 13 s
Time (Rattus norvegicus [29]): 9 s
Time (Rattus norvegicus [30]): 20.5 s
inhibition in vivo at 0.032 mg/kg (Rattus norvegicus [31]): 90%
Activity [32]: Non-toxic
Time (Rattus norvegicus [33]): >300 min

C[C@]12N3Cc4c(c(OCCCC(=O)[O-])c5ccccc5c4OCCCC(=O)[O-])CN1C(=O)N1CN4C(=O)N5CN6C(=O)N7CN8C(=O)N9Cc%10c(c(OCCCC(=O)[O-])c%11ccccc%11c%10OCCCC(=O)[O-])CN%10C(=O)N(CN%11C(=O)N(CN%12C(=O)N(CN(C3=O)[C@]12C)[C@@H]4[C@H]%125)[C@@H]6[C@H]%117)[C@]8(C)[C@@]9%10C.[Na+].[Na+].[Na+].[Na+]
Time (Rattus norvegicus [34]): 30 s
Activity [35]: Non-toxic
Time (Rattus norvegicus [36]): 54 s
Time (Rattus norvegicus [37]): 12 s
Time (Rattus norvegicus [38]): 19 s
